Patent publication US8222247B2, “Modulators of glucocorticoid receptor, AP-1, and/or NF-kappabeta activity and use thereof” (Bristol-Myers Squibb Company, priority 2006, dated 2012)

Biological target: T1, human glucocorticoid receptor (Homo sapiens, UniProt P04150)
T1 construct: purified human recombinant full-length glucocorticoid receptor (2 nM); purchased Invitrogen Part #2893
T1 sequence (P04150 1-777): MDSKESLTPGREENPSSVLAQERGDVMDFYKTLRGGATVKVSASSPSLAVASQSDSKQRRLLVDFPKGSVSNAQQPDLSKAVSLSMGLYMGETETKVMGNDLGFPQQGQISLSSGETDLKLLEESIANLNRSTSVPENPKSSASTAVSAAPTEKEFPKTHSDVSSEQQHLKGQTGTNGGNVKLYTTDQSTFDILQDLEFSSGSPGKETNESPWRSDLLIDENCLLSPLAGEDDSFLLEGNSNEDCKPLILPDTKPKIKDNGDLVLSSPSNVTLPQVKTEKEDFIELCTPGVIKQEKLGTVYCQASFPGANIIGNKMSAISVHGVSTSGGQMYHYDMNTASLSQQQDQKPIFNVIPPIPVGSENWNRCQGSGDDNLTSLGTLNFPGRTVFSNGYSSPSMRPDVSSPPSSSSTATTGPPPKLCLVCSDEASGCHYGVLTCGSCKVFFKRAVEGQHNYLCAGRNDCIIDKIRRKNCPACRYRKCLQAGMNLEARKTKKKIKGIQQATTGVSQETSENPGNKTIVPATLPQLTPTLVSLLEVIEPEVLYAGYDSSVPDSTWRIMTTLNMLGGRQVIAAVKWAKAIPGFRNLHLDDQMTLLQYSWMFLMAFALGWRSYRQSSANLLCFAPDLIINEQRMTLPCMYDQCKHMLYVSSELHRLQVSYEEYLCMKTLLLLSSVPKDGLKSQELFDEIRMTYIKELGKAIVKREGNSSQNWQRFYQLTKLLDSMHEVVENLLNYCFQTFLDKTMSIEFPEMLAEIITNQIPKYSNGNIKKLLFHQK
Assay: Glucocorticoid Receptor Binding Assay (I), fluorescence polarization competitor kit
Details: purified human recombinant full-length GR, Fluormone GS Red
Experimental: Glucocorticoid Receptor Binding Assay (I)^a
In order to assess the affinity of test compounds for the human glucocorticoid receptor, a commercially available kit was used (Glucocorticoid Receptor Competitor Assay Kit, Invitrogen Part #2893). Briefly, purified human recombinant full-length glucocorticoid receptor (2 nM) was mixed with fluorescently labeled glucocorticoid (1 nM Fluormone GS Red) in the presence or absence of test compound. After two hour incubation at room temperature in the dark, the fluorescence polarization (FP) of the samples was measured. The FP of a mixture of receptor, fluorescent probe (i.e. Fluormone GS Red) and 5 μM dexamethasone represented background fluorescence or 100% inhibition, whereas, the FP of the mixture without dexamethasone (but in the presence of vehicle) was taken to be 100% binding. The percentage inhibition of test compounds were then compared to the sample with 5 μM dexamethasone and expressed as % relative binding activity with dexamethasone being 100% and no inhibition is 0%. Test compounds were analyzed in the concentration range from 8.5E-05 μM to 5 μM.

Row | Structure (SMILES) | Ki [nM]
1 | CC(C)(C(=O)Nc1nncs1)[C@@H](c1cccc(F)c1)c1ccc(-c2ccc(C(=O)NC3CC3)cc2)s1 [Example 77, N-cyclopropyl-4-(5-((1R)-1-(3-fluorophenyl)-2,2-dimethyl-3-oxo-3-(1,3,4-thiadiazol-2-ylamino)propyl)-2-thienyl)benzamide] | 4.19
2 | C[C@@H](C(=O)Nc1nncs1)[C@@H](c1cccc(F)c1)c1ccc(-c2ccc(C(=O)N(C)C)cc2)s1 [Example 131, 4-(5-((1S,2R)-1-(3-fluorophenyl)-2-methyl-3-oxo-3-(1,3,4-thiadiazol-2-ylamino)propyl)-2-thienyl)-N,N-dimethylbenzamide] | 236
3 | CCNC(=O)c1ccc(-c2ccc([C@H](c3cccc(F)c3)C(C)(C)C(=O)Nc3nncs3)s2)cc1 [Example 73, N-ethyl-4-(5-((1R)-1-(3-fluorophenyl)-2,2-dimethyl-3-oxo-3-(1,3,4-thiadiazol-2-ylamino)propyl)-2-thienyl)benzamide] | 6.13
4 | CN(C)C(=O)c1ccc(-c2ccc([C@@H](c3cccc(F)c3)C(C)(C)C(=O)Nc3nncs3)s2)cc1Cl [Example 60, 2-chloro-4-(5-((1S)-1-(3-fluorophenyl)-2,2-dimethyl-3-oxo-3-(1,3,4-thiadiazol-2-ylamino)propyl)-2-thienyl)-N,N-dimethylbenzamide] | 161
5 | CC(C)(C(=O)Nc1nncs1)[C@H](c1cccc(F)c1)c1ccc(Br)s1 [Example 56, (3S)-3-(5-bromo-2-thienyl)-3-(3-fluorophenyl)-2,2-dimethyl-N-1,3,4-thiadiazol-2-ylpropanamide] | 1.21
6 | CC(C(=O)Nc1nncs1)C(c1ccccc1)c1ccc(Br)s1 (single isomer, unassigned) [Example 134, 3-(5-bromo-2-thienyl)-2-methyl-3-phenyl-N-1,3,4-thiadiazol-2-ylpropanamide] | 1.06
7 | CCN(C)C(=O)c1ccc(-c2ccc([C@@H](c3cccc(F)c3)[C@@H](C)C(=O)Nc3ncc(C)s3)s2)cc1 [Example 142, N-ethyl-4-(5-((1R,2R)-1-(3-fluorophenyl)-2-methyl-3-((5-methyl-1,3-thiazol-2-yl)amino)-3-oxopropyl)-2-thienyl)-N-methylbenzamide] | 3.2
8 | CCCN(CCC)C(=O)c1ccc(-c2ccc(C(c3ccccc3)C(C)(C)C(=O)Nc3nncs3)s2)cc1 (centres unmarked) [Example 51, 4-(5-(2,2-dimethyl-3-oxo-1-phenyl-3-(1,3,4-thiadiazol-2-ylamino)propyl)-2-thienyl)-N,N-dipropylbenzamide] | 79.7
9 | CC(C)(C(=O)Nc1nncs1)[C@H](c1cccc(F)c1)c1ccc(-c2ccc(C(=O)N3CCOCC3)c(Cl)c2)s1 [Example 61, (3S)-3-(5-(3-chloro-4-(4-morpholinylcarbonyl)phenyl)-2-thienyl)-3-(3-fluorophenyl)-2,2-dimethyl-N-1,3,4-thiadiazol-2-ylpropanamide] | 101
10 | C[C@@H](C(=O)Nc1nncs1)[C@@H](c1cccc(F)c1)c1ccc(-c2ccc(C(=O)N(C)C)c(Cl)c2)s1 [Example 129, 2-chloro-4-(5-((1S,2R)-1-(3-fluorophenyl)-2-methyl-3-oxo-3-(1,3,4-thiadiazol-2-ylamino)propyl)-2-thienyl)-N,N-dimethylbenzamide] | 158
11 | CC(C)(C(=O)Nc1nccs1)C(c1ccccc1)c1ccc(Br)s1 (centres unmarked) [Example 4, 3-(5-bromo-2-thienyl)-2,2-dimethyl-3-phenyl-N-1,3-thiazol-2-ylpropanamide] | 6.97
12 | C[C@H](C(=O)Nc1nncs1)[C@@H](c1cccc(F)c1)c1ccc(-c2ccc(C(=O)N3CCOCC3)c(Cl)c2)s1 [Example 124, (2S,3S)-3-(5-(3-chloro-4-(4-morpholinylcarbonyl)phenyl)-2-thienyl)-3-(3-fluorophenyl)-2-methyl-N-1,3,4-thiadiazol-2-ylpropanamide] | 7.27
13 | CC(C)(C(=O)Nc1nncs1)[C@@H](c1cccc(F)c1)c1ccc(-c2ccc(C(=O)N3CCC3)c(F)c2)s1 [Example 82, (3R)-3-(5-(4-(1-azetidinylcarbonyl)-3-fluorophenyl)-2-thienyl)-3-(3-fluorophenyl)-2,2-dimethyl-N-1,3,4-thiadiazol-2-ylpropanamide] | 2.66
14 | CC(C)(C)NC(=O)c1ccc(-c2ccc([C@H](c3cccc(F)c3)C(C)(C)C(=O)Nc3nncs3)s2)cc1 [Example 76, N-tert-butyl-4-(5-((1R)-1-(3-fluorophenyl)-2,2-dimethyl-3-oxo-3-(1,3,4-thiadiazol-2-ylamino)propyl)-2-thienyl)benzamide] | 27
15 | CCN(CC)C(=O)c1ccc(-c2ccc(C(c3ccccc3)C(C)(C)C(=O)Nc3nncs3)s2)cc1Cl (centres unmarked) [Example 48, 2-chloro-4-(5-(2,2-dimethyl-3-oxo-1-phenyl-3-(1,3,4-thiadiazol-2-ylamino)propyl)-2-thienyl)-N,N-diethylbenzamide] | 17.4
16 | C[C@@H](C(=O)Nc1nncs1)[C@@H](c1cccc(F)c1)c1ccc(-c2ccc(C(=O)N3CCOCC3)c(Cl)c2)s1 [Example 130, (2R,3S)-3-(5-(3-chloro-4-(4-morpholinylcarbonyl)phenyl)-2-thienyl)-3-(3-fluorophenyl)-2-methyl-N-1,3,4-thiadiazol-2-ylpropanamide] | 160
17 | C[C@@H](C(=O)Nc1nncs1)[C@H](c1ccccc1)c1ccc(-c2ccc(C(=O)N3CCOCC3)cc2)s1 (stereo in doubt) [Example 152, (2R,3R)-2-methyl-3-(5-(4-(4-morpholinylcarbonyl)phenyl)-2-thienyl)-3-phenyl-N-1,3,4-thiadiazol-2-ylpropanamide] | 4.85
18 | C[C@H](C(=O)Nc1nncs1)[C@H](c1cccc(F)c1)c1ccc(-c2ccc(C(=O)N(C)C)cc2)s1 [Example 128, 4-(5-((1R,2S)-1-(3-fluorophenyl)-2-methyl-3-oxo-3-(1,3,4-thiadiazol-2-ylamino)propyl)-2-thienyl)-N,N-dimethylbenzamide] | 277
19 | CN(C)C(=O)c1ccc(-c2ccc([C@@H](c3cccc(F)c3)C(C)(C)C(=O)Nc3nncs3)s2)cc1 [Example 58, 4-(5-((1S)-1-(3-fluorophenyl)-2,2-dimethyl-3-oxo-3-(1,3,4-thiadiazol-2-ylamino)propyl)-2-thienyl)-N,N-dimethylbenzamide] | 29.2
20 | CCN(C)C(=O)c1ccc(-c2ccc([C@@H](c3cccc(F)c3)C(C)(C)C(=O)Nc3nncs3)s2)cc1 [Example 62, N-ethyl-4-(5-((1S)-1-(3-fluorophenyl)-2,2-dimethyl-3-oxo-3-(1,3,4-thiadiazol-2-ylamino)propyl)-2-thienyl)-N-methylbenzamide] | 87.6
21 | CNC(=O)c1ccc(-c2ccc([C@H](c3cccc(F)c3)C(C)(C)C(=O)Nc3nncs3)s2)cc1 [Example 75, 4-(5-((1R)-1-(3-fluorophenyl)-2,2-dimethyl-3-oxo-3-(1,3,4-thiadiazol-2-ylamino)propyl)-2-thienyl)-N-methylbenzamide] | 1.52
22 | CC(C)(C(=O)Nc1nncs1)[C@@H](c1cccc(F)c1)c1ccc(-c2ccc(C(=O)N3CCC3)cc2)s1 [Example 81, (3R)-3-(5-(4-(1-azetidinylcarbonyl)phenyl)-2-thienyl)-3-(3-fluorophenyl)-2,2-dimethyl-N-1,3,4-thiadiazol-2-ylpropanamide] | 4.32
23 | CC(C)Oc1ccc(-c2ccc(C(c3cccc(F)c3)C(C)(C)C(=O)Nc3nncs3)s2)cc1F (centres unmarked) [Example 37, 3-(5-(3-fluoro-4-isopropoxyphenyl)-2-thienyl)-3-(3-fluorophenyl)-2,2-dimethyl-N-1,3,4-thiadiazol-2-ylpropanamide] | 53.5
24 | COC(=O)c1ccc(-c2ccc(C(c3ccccc3)C(C)(C)C(=O)Nc3nncs3)s2)cc1F (centres unmarked) [Example 53, methyl 4-(5-(2,2-dimethyl-3-oxo-1-phenyl-3-(1,3,4-thiadiazol-2-ylamino)propyl)-2-thienyl)-2-fluorobenzoate] | 152
25 | CC(C(=O)Nc1nncs1)C(c1ccccc1)c1ccc(Br)s1 (single isomer, unassigned) [Example 135, 3-(5-bromo-2-thienyl)-2-methyl-3-phenyl-N-1,3,4-thiadiazol-2-ylpropanamide] | 1.25
26 | C[C@@H](C(=O)Nc1nncs1)[C@H](c1ccccc1)c1ccc(Br)s1 [Example 136, (2R,3R)-3-(5-bromo-2-thienyl)-2-methyl-3-phenyl-N-1,3,4-thiadiazol-2-ylpropanamide] | 1.98
